From patent US20100311714A1, “1H-IMIDAZO[4,5-c]QUINOLINONE COMPOUNDS” (priority 2009, published 2010)

How the values were obtained:
PI3K alfa = biological target: T1, PI3K alfa (Homo sapiens, UniProt P42336); assay: PI3K alpha kinase assay (Kinase-Glo luminescence); type: biochemical; settings: read-out: EPK_PI3Kalfa/IC50
T1 construct: His tag (C); made in house; host or cells: baculovirus BV1075; Tn5 (Trichoplusia ni) or TiniPro insect cells
Description: (§1) In a more preferred assay, the kinase reaction is performed in a final volume of 10 μL per well of a low volume non binding CORNING, 384 well black plate (Cat. No. #3676). The final concentrations of ATP and phosphatidyl inositol (PI) in the assay are 1 μM and 10 μg/mL respectively. The reaction is started by the addition of ATP.
(§2) The components of the assay are added per well as follows:
(§3) 50 nL test compounds in 90% DMSO per well, in columns 1-20, 8 concentrations (⅓ and 1/3.33 serial dilution step) in single. • Low control: […] of 90% DMSO in half the wells of columns 23-24 (0.45% in final). • High control: 50 nL of reference compound (e.g. compound of Example 7 in WO 2006/122806) in the other half of columns 23-24 (2.5 μM in final). • Standard: 50 nL of reference compound as just mentioned diluted as the test compounds in columns 21-22 • 20 mL ‘buffer’ are prepared per assay: • 200 μL of 1M TRIS HCl pH7.5 (10 mM in final) • 60 μL of 1M MgCl2 (3 mM in final) • 500 μL of 2M NaCl (50 mM in final) • 100 μL of 10% CHAPS (0.05% in final) • 200 μL of 100 mM DTT (1 mM in final) • 18.94 mL of nanopure water • 10 mL ‘PI’ are prepared per assay: • 200 μL of 1 mg/ml L-alpha-Phosphatidylinositol (Liver Bovine, Avanti Polar Lipids Cat. No. 840042C MW=909.12) prepared in 3% OctylGlucoside (10 μg/ml in final) • 9.8 mL of ‘buffer’ • 10 mL ‘ATP’ are prepared per assay: • 6.7 μL of 3 mM stock of ATP giving a final concentration of 1 μM per well • 10 mL of ‘buffer’ • 2.5 mL of each PI3K construct are prepared per assay in ‘PI’ with the following final concentration: • 10 nM PI3K alfa EMV B1075 • 25 nM beta EMV BV949 • 10 nM delta EMV BV1060 • 150 nM gamma EMV BV950 • 5 μL of ‘PI/PI3K’ are added per well. • 5 μl ‘ATP’ are added per well to start the reaction. • The plates are then incubated at room temperature for 60 minutes (alfa, beta, delta) or 120 minutes (gamma). • The reaction is terminated by the addition of 10 μL Kinase-Glo (Promega Cat. No. #6714). • The assay plates are read after 10 minutes in Synergy 2 reader (BioTek, Vermont USA) with an integration time of 100 milliseconds and sensitivity set to 191. • Output: The High control is around 60′000 counts and the Low control is 30′000 or lower • This luminescence assay gives a useful Z′ ratio between 0.4 and 0.7
Two different constructs, BV 1052 and BV 1075, are used to generate the PI3 Kinase α proteins for compound screening.
PI3K alpha is purified in three chromatographic steps: immobilized metal affinity chromatography on a Ni Sepharose resin (GE Healthcare, belonging to General Electric Company, Fairfield, Conn., USA), gel filtration utilizing a Superdex 200 26/60 column (GE Healthcare), and finally a cation exchange step on a SP-XL column (GE Healthcare). All buffers are chilled to 4° C. and lysis is performed chilled on ice. Column fractionation is performed rapidly at room temperature.
(§4) IC50 is determined by a four parameter curve fitting routine that comes along with “excel fit”. A 4 Parameter logistic equation is used to calculate IC50 values (IDBS XLfit) of the percentage inhibition of each compound at 8 concentrations (usually 10, 3.0, 1.0, 0.3, 0.1, 0.030, 0.010 and 0.003 μM). Alternatively, IC50 values are calculated using idbsXLfit model 204, which is a 4 parameter logistic model.

PI3K beta = biological target: T2, PI3K beta (Homo sapiens, UniProt P42338); assay: PI3K beta kinase assay (Kinase-Glo luminescence); type: biochemical; settings: read-out: EPK_PI3Kbeta/IC50
T2 construct: for the full-length p110-b subunit are generated and fused by overlapping PCR; His tag (C); made in house; host or cells: baculovirus BV949; Tn5 (Trichoplusia ni) or TiniPro insect cells
Description: as §1, §2, §3
PI3Kβ BV-949 p85(iSH2)-Gly linker-r 110b(full-length)-C-term His Tag
PI3K beta is purified in two chromatographic steps: immobilized metal affinity chromatography (IMAC) on a Ni Sepharose resin (GE Healthcare) and gel filtration (GFC) utilizing a Superdex 200 26/60 column (GE Healthcare). All buffers are chilled to 4° C. and lysis is performed chilled on ice. Column fractionation is performed rapidly at room temperature.
as §4

PI3K delta = biological target: T3, PI3K delta (Homo sapiens, UniProt O00329); assay: PI3K delta kinase assay (Kinase-Glo luminescence); type: biochemical; settings: read-out: EPK_PI3Kdelta/IC50
T3 construct: for the full-length p110-d subunit are generated and fused by overlapping PCR; His tag (C); made in house; host or cells: baculovirus BV1060; Tn5 (Trichoplusia ni) or TiniPro insect cells
Description: as §1, §2, §3
PI3Kδ BV-1060 p85(iSH2)-Gly Linker-p110d(Full-Length)-C-Term His Tag
PI3K delta is purified in three chromatographic steps: immobilized metal affinity chromatography on a Ni Sepharose resin (GE Healthcare), gel filtration utilizing a Superdex 200 26/60 column (GE Healthcare), and finally a anion exchange step on a Q-HP column (GE Healthcare). All buffers are chilled to 4° C. and lysis is performed chilled on ice. Column fractionation is performed rapidly at room temperature. Typically frozen insect cells are lysed in a hypertonic lysis buffer and applied to a prepared IMAC column. The resin is washed with 3-5 column volumes of lysis buffer, followed by 3-5 column volumes wash buffer containing 45 mM imidazole, and the target protein is then eluted with a buffer containing 250 mM imidazole. Fractions are analyzed by Coomassie stained SDS-PAGE gels, and fractions containing the target protein are pooled and applied to a prepared GFC column. Fractions from the GFC column are analyzed by Coomassie stained SDS-PAGE gels, and fractions containing the target protein are pooled. The pool from the GFC column is diluted into a low salt buffer and applied to a prepared Q-HP column. The column is washed with low salt buffer until a stable A280 baseline absorbance is achieved, and eluted using a 20 column volume gradient from 0 mM NaCl to 500 mM NaCl. Again, fractions from the Q-HP column are analyzed by Coomassie stained SDS-PAGE gels, and fractions containing the target protein are pooled. The final pool is dialyzed into a storage buffer containing 50% glycerol and stored at −20° C. The final pool is assayed for activity in the phosphoinostitol kinase assay. […]

mTOR = biological target: T4, mTOR (Homo sapiens, UniProt P42345); assay: Biochemical assay for m-TOR by TR-FRET; settings: read-out: EPK_mTOR/IC50
T4 construct: purchased Invitrogen Corporation (Carlsbad/Calif., USA) PV4753
Description: Biochemical Assay for m-TOR by TR-FRET.
Assay components are purchased from Invitrogen Corporation (Carlsbad/Calif., USA): GFP-4EBP1 (Cat. No. PV4759), Tb3+-α-p4EBP1 [pThr46] Antibody (Cat. No. PV4757), proprietary TR-FRET dilution buffer (Cat. No. PV3574), mTOR protein (Cat. No. PV4753).
50 nL of compound dilutions (final concentration of 10, 3.0, 1.0, 0.3, 0.1, 0.03, 0.01 and 0.003 μM) are dispensed onto black 384-well low volume non-binding polystyrene (Cat. No. NBS#3676, Corning, Lowell/Mass., USA). Then 5 μL of ATP (8 μM final concentration) and GFP-4EBP1 (400 nM final concentration) with 5 μL mTOR proteins (0.5 nM final concentration) are incubated at rt. The standard reaction buffer for the TR-FRET mTOR assay contained 50 mM HEPES pH 7.5, 10 mM MnCl2, 50 mM NaCl, 1 mM EGTA, 1 mM DTT. Reactions were stopped with 10 μL of a mixture of EDTA containing the Tb3+-α-p4EBP1[pT46] detection Ab (0.5 nM) in TR-FRET dilution buffer (proprietary to IVG). Plates are read 15 mins later in a Synergy2 reader using an integration time of 0.2 seconds and a delay of 0.1 seconds. Control for the 100% inhibition of the kinase reaction is performed by replacing the mTOR kinase by the standard reaction buffer. The control for the 0% inhibition is given by the solvent vehicle of the compounds (90% DMSO in H2O). A standard compound is used as a reference compound and included in all assay plates in the form of 16 dilution points in duplicate.

T2 sequence (P42338 with tags, fused parts or gaps limits assumed): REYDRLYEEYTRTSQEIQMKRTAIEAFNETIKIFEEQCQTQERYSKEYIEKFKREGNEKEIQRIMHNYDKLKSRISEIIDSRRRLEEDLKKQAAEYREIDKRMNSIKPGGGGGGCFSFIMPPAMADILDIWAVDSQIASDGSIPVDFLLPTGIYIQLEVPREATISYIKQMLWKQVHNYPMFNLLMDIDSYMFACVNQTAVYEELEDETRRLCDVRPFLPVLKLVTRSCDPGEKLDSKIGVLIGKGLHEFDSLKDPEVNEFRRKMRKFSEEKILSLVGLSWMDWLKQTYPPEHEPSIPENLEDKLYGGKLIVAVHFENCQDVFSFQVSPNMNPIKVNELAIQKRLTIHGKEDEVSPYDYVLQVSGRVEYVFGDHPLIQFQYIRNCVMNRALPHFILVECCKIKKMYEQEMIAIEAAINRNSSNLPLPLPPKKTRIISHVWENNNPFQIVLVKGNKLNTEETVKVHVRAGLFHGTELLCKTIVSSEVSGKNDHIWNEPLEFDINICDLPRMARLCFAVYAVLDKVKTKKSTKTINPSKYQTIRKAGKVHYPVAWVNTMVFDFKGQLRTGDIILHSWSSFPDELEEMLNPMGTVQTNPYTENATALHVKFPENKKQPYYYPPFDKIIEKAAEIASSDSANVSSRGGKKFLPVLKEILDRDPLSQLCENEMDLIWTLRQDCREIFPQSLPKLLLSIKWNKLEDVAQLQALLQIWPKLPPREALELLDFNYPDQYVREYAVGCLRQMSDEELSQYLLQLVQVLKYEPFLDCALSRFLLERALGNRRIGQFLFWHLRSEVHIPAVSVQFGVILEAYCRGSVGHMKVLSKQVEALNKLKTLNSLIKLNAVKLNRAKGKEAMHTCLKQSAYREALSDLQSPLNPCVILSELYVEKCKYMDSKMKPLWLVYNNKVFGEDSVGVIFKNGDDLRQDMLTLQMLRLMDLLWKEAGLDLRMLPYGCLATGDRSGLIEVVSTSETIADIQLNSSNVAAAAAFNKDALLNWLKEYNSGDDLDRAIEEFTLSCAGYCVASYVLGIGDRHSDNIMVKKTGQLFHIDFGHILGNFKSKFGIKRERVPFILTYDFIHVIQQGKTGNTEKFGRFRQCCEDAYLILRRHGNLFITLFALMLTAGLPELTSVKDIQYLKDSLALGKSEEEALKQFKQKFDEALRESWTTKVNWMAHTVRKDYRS
T3 sequence (O00329 with tags, fused parts or gaps limits assumed): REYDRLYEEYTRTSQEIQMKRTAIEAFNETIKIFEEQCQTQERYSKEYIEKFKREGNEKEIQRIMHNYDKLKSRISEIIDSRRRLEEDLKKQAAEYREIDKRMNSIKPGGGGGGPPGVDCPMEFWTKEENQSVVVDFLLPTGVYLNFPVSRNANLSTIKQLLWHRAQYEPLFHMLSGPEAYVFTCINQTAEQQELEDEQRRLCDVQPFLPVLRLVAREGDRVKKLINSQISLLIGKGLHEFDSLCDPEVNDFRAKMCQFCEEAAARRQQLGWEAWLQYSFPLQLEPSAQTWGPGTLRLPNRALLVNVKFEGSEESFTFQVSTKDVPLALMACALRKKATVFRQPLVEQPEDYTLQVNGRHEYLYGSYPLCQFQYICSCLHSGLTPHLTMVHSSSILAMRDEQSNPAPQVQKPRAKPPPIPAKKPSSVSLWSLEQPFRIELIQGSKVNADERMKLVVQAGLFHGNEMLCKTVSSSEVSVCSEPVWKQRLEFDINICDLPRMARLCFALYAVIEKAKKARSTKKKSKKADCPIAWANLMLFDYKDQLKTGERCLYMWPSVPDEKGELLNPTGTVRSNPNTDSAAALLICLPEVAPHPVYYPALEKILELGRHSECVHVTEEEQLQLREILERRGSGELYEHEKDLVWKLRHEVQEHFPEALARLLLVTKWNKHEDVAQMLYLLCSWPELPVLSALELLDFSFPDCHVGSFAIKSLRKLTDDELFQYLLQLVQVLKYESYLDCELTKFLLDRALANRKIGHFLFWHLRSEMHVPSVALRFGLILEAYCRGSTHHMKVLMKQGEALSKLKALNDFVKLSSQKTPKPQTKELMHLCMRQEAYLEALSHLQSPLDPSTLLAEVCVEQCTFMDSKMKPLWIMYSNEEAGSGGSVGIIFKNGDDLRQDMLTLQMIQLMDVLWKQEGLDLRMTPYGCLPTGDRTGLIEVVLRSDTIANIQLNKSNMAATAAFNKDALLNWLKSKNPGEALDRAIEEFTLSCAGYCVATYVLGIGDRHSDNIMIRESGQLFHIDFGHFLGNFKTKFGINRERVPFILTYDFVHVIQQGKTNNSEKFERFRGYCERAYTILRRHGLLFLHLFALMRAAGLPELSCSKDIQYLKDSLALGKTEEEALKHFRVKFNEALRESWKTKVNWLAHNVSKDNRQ
T1 sequence (P42336 with tags, fused parts or gaps limits assumed): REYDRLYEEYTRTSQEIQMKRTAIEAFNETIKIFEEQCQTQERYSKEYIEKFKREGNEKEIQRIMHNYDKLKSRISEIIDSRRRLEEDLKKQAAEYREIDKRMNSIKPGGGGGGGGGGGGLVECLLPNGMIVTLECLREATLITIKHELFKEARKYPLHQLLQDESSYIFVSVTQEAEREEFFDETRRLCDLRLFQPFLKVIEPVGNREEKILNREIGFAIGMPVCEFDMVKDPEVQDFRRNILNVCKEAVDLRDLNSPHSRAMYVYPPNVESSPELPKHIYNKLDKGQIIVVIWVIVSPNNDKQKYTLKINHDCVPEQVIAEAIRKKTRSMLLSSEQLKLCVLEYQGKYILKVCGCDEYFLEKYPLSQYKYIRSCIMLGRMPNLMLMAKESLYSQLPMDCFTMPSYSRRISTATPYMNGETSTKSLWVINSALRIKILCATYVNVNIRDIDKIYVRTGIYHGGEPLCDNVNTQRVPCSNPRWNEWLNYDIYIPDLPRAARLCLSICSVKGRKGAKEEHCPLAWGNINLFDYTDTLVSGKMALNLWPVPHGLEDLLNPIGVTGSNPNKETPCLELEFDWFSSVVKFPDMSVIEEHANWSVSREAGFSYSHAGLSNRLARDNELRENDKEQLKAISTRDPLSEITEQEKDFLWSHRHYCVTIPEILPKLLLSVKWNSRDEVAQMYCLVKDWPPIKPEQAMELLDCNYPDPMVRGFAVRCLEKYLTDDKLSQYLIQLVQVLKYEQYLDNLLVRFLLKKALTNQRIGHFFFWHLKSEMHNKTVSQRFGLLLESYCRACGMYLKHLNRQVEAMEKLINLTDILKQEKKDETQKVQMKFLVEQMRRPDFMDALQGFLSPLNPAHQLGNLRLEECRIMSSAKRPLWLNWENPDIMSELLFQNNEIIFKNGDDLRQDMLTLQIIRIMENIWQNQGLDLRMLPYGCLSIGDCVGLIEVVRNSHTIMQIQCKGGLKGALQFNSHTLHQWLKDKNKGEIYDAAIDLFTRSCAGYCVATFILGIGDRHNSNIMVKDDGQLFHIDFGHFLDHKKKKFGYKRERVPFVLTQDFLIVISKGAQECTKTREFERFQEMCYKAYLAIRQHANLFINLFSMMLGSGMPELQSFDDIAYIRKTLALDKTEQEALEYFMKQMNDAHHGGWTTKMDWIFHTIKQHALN
T4 sequence (P42345 1360-2549 limits assumed): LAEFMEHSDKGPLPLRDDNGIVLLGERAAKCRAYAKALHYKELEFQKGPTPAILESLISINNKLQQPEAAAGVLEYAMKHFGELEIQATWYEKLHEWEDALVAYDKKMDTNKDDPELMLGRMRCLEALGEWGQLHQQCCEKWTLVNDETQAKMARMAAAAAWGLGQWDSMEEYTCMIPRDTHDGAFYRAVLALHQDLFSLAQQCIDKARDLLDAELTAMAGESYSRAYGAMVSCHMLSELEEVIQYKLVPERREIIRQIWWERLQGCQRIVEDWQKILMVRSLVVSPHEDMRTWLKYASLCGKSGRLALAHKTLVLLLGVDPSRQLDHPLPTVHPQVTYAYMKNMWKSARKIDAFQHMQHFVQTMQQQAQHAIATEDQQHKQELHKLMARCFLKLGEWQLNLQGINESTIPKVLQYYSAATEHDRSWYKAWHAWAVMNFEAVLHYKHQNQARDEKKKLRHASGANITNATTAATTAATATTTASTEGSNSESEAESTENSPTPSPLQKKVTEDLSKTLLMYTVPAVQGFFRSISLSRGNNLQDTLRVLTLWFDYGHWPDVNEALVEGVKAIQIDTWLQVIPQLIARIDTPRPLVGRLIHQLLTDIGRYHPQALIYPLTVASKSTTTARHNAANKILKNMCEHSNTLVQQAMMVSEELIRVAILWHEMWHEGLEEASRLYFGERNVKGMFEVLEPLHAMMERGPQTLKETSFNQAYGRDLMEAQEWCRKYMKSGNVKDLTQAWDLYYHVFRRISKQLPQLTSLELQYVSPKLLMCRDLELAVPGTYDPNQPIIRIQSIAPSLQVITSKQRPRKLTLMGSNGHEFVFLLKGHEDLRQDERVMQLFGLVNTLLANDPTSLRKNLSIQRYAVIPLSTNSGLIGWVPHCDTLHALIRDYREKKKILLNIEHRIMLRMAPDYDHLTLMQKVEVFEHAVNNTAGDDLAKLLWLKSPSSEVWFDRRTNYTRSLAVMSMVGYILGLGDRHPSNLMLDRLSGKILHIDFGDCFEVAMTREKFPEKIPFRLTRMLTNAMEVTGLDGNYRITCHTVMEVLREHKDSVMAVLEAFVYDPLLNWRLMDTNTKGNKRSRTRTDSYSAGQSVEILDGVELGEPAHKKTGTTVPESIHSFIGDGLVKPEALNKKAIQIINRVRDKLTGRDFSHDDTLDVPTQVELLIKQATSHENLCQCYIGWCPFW

CNc1ncc(-c2ccc3ncc4c(c3c2)n(-c2ccc(C(C)(C)O)nc2C)c(=O)n4C)cn1 [Example 31.2, 1-[6-(1-Hydroxy-1-methyl-ethyl)-2-methyl-pyridin-3-yl]-3-methyl-8-(2-methylamino-pyrimidin-5-yl)-1,3-dihydro-imidazo[4,5-c]quinolin-2-one]
IC50 (PI3K alfa): 26 nM | IC50 (PI3K beta): 105 nM | IC50 (PI3K delta): 11 nM | IC50 (mTOR): 6 nM

CCNc1ncc(-c2ccc3ncc4c(c3c2)n(-c2ccc(N3CC[C@H](O)C3)nc2C)c(=O)n4C)c(OC)n1 [Example 32.9, 8-(2-Ethylamino-4-methoxy-pyrimidin-5-yl)-1-[6-((S)-3-hydroxy-pyrrolidin-1-yl)-2-methyl-pyridin-3-yl]-3-methyl-1,3-dihydro-imidazo[4,5-c]quinolin-2-one]
IC50 (PI3K alfa): 27 nM | IC50 (PI3K beta): 385 nM | IC50 (PI3K delta): 21 nM | IC50 (mTOR): 21 nM
